Measurements taken from patent US20240189279A1, “IMMUNOMODULATORY COMPOSITIONS AND METHODS OF USE THEREOF” (THE TEXAS A&M UNIVERSITY SYSTEM, priority 2022, published 2024).

Columns and labels:
[1] = system: TNFα and IL-1β expression in RAW 264.7 macrophages; assay: TNFα and IL-1β expression (qRT-PCR) in RAW 264.7 macrophages, palmitate and LPS two-hit model; format: cell-based, murine
[2] = target: T1, AhR (Homo sapiens, UniProt P35869); assay: Cell-based AhR reporter assays; settings: extent comparable to other endogenous Trp-derived ligands (e.g., kynurenine)
T1 sequence (P35869 11-848): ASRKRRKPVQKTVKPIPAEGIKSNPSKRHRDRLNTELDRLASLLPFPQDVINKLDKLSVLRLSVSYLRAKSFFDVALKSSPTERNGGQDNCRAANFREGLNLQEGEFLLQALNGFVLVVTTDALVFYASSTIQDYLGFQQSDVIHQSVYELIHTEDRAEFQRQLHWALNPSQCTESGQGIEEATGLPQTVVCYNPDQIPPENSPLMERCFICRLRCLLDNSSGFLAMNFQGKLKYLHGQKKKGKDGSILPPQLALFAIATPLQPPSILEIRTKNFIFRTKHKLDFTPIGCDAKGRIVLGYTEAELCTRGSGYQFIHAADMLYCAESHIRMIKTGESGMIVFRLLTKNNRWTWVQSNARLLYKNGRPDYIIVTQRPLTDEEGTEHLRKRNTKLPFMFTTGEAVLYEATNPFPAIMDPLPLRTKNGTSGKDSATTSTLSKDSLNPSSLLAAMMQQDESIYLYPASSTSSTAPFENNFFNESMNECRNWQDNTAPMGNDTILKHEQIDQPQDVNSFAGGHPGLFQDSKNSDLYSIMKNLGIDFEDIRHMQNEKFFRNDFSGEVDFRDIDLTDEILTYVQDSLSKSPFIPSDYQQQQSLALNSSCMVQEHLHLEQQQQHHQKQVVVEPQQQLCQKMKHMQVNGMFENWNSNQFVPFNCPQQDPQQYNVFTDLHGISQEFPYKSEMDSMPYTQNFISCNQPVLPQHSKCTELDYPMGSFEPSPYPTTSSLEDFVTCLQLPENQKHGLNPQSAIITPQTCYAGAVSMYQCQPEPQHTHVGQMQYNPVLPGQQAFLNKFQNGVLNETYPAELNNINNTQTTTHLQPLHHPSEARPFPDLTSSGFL

[3] = system: endotoxin-treated murine bone marrow derived macrophages; assay: Cytokine expression in endotoxin-treated bone marrow derived macrophages; format: cell-based
[4] = system: palmitate and LPS stimulated macrophages; assay: Cytokine production in palmitate and LPS stimulated macrophages; format: cell-based
[5] = system: colitis and fungal infection; settings: administration of indole-3-aldehyde; cited from earlier work
[6] = system: NSAID enteropathy; settings: indole administration; cited from earlier work
[7] = RAW 264.7, 1 mM AICAR 4 h, 300 μM palmitate 18 h, 10 ng/ml LPS 6 h

**Q.** With `NC(=O)c1ncn([C@@H]2O[C@H](COP(=O)(O)O)[C@@H](O)[C@H]2O)c1N` [AICAR, 5-aminoimidazole-4-carboxamide ribonucleotide] as the compound, how does the “attenuation of palmitate and LPS stimulated increase in IL-1β expression” value [1, 7] read?
**A.** 80%

**Q.** What about the “attenuation of palmitate and LPS stimulated increase in TNFα expression” value [1, 7] of the same compound?
**A.** 30%

**Q.** Which “effect of AhR inhibitor on I3A's reduction of palmitate and LPS induced TNFα and IL-β expression” value ([1]; RAW 264.7, CH223191 5 μM added 10 min before 1 mM I3A) does the source give for `Cc1ccccc1N=Nc1ccc(NC(=O)c2ccnn2C)c(C)c1` [CH223191] here?
**A.** did not alter I3A's effect

**Q.** With `NCCc1c[nH]c2ccccc12` [TA, tryptamine] as the compound, how does the AhR activation [2] read?
**A.** dose-dependently activate the AhR

**Q.** What about the “expression of IL-1, TNF-α, and MCP-1” value [3] of the same compound?
**A.** dose-dependently downregulate the expression of IL-1, TNF-α, and MCP-1

**Q.** What about the “production of TNF-α, IL-1β, and MCP-1” value [4] of the same compound?
**A.** dose-dependently attenuated the production of TNF-α, IL-1β, and MCP-1

**Q.** With `O=Cc1c[nH]c2ccccc12` [indole-3-aldehyde] as the compound, how does the “IL-22 production from natural killer (NK) cells” value [5] read?
**A.** induced IL-22 production from natural killer (NK) cells

**Q.** And the mucosal inflammation [5]?
**A.** protected against mucosal inflammation

**Q.** With `c1ccc2[nH]ccc2c1` [indole] as the compound, how does the “mucosal inflammation and injury” value [6] read?
**A.** decreased mucosal inflammation and injury
